From publication PMC7979765, “trans-Translation inhibitors bind to a novel site on the ribosome and clear Neisseria gonorrhoeae in vivo” (Nature Communications, 2021)
“And” between values parts separate entries of the source, which are not always exact repeats. Equal entries are not always repeated. Where two headings read alike, the source gives them in different places.

Assay: Pharmacokinetic analyses in mice (PO suspension, IV, SC)
Assay type: in vivo, mouse
Description: Female CD-1 mice as above were fasted for 2 h prior, and 4 h after dosing. […] […], 3 mice from each group were euthanized by CO2 inhalation, blood was collected by cardiac puncture into K2EDTA collection tubes, and protein was precipitated and analysed by LC/MS-MS for plasma concentrations of MBX-4132. Data were analysed using WinNonLin.
[…] At 0.083, 0.5, 1, 4, 8 and 24 h post dose, blood was collected from 3 mice/group by tail vein or facial bleed into K2EDTA collection tubes, and protein was precipitated and analysed by LC/MS-MS for plasma concentrations of MBX-4132. Sampling was performed serially, with each mouse contributing sample at all time points. Data were analysed using WinNonLin.

In the case of `O=C(Nc1nnc(-c2ccc(F)cc2)o1)N1CCc2ccccc2C1` [MBX 4132], the “MBX 4132 Concentrations in Mouse Plasma” value (IV (10 mg/kg), 0.083 hrs, individual animals, 10 mg/kg) was 58700 ng/mL and 65700 ng/mL, the “MBX 4132 Concentrations in Mouse Plasma” value (IV (10 mg/kg), 0.5 hrs, individual animals, 10 mg/kg) was 36200 ng/mL and 32000 ng/mL and the “MBX 4132 Concentrations in Mouse Plasma” value (IV (10 mg/kg), 1 hrs, individual animals, 10 mg/kg) was 22900 ng/mL and 20200 ng/mL. The “MBX 4132 Concentrations in Mouse Plasma” value (IV (10 mg/kg), 4 hrs, individual animals, 10 mg/kg) was 8580 ng/mL and 6390 ng/mL, the “MBX 4132 Concentrations in Mouse Plasma” value (IV (10 mg/kg), 8 hrs, individual animals, 10 mg/kg) was 3980 ng/mL and 3290 ng/mL and the “MBX 4132 Concentrations in Mouse Plasma” value (IV (10 mg/kg), 24 hrs, individual animals, 10 mg/kg) was 293 ng/mL and 149 ng/mL and 67.4 ng/mL. For the same compound, the “MBX 4132 Concentrations in Mouse Plasma” value (PO (10 mg/kg susp.), 0.25 hrs, individual animals, 10 mg/kg) was 15389 ng/mL and 9102 ng/mL, the “MBX 4132 Concentrations in Mouse Plasma” value (PO (10 mg/kg susp.), 0.5 hrs, individual animals, 10 mg/kg) was 16019 ng/mL and 12183 ng/mL and the “MBX 4132 Concentrations in Mouse Plasma” value (PO (10 mg/kg susp.), 1 hrs, individual animals, 10 mg/kg) was 16437 ng/mL and 15902 ng/mL. For the same compound, the “MBX 4132 Concentrations in Mouse Plasma” value (PO (10 mg/kg susp.), 2 hrs, individual animals, 10 mg/kg) was 10997 ng/mL and 18067 ng/mL, the “MBX 4132 Concentrations in Mouse Plasma” value (PO (10 mg/kg susp.), 4 hrs, individual animals, 10 mg/kg) was 13379 ng/mL and 14121 ng/mL and the “MBX 4132 Concentrations in Mouse Plasma” value (PO (10 mg/kg susp.), 8 hrs, individual animals, 10 mg/kg) was 11230 ng/mL and 9243 ng/mL. The “MBX 4132 Concentrations in Mouse Plasma” value (PO (10 mg/kg susp.), 24 hrs, individual animals) was <62.5 ng/mL, the “MBX 4132 Concentrations in Mouse Plasma” value (PO (10 mg/kg), 0.083 hrs, individual animals, 10 mg/kg) was 809 ng/mL and 1080 ng/mL and 1900 ng/mL and the “MBX 4132 Concentrations in Mouse Plasma” value (PO (10 mg/kg), 0.5 hrs, individual animals, 10 mg/kg) was 881 ng/mL and 1440 ng/mL and 1770 ng/mL. The “MBX 4132 Concentrations in Mouse Plasma” value (PO (10 mg/kg), 1 hrs, individual animals, 10 mg/kg) was 1490 ng/mL and 1730 ng/mL, the “MBX 4132 Concentrations in Mouse Plasma” value (PO (10 mg/kg), 4 hrs, individual animals, 10 mg/kg) was 1960 ng/mL and 2880 ng/mL and the “MBX 4132 Concentrations in Mouse Plasma” value (PO (10 mg/kg), 8 hrs, individual animals, 10 mg/kg) was 4940 ng/mL and 6040 ng/mL. For the same compound, the “MBX 4132 Concentrations in Mouse Plasma” value (PO (10 mg/kg), 24 hrs, individual animals, 10 mg/kg) was 66.5 ng/mL and 26.0 ng/mL and 81.5 ng/mL, the “MBX 4132 Concentrations in Mouse Plasma” value (SC (10 mg/kg), 0.083 hrs, individual animals, 10 mg/kg) was 738 ng/mL and 530 ng/mL and 1090 ng/mL and the “MBX 4132 Concentrations in Mouse Plasma” value (SC (10 mg/kg), 0.5 hrs, individual animals, 10 mg/kg) was 3760 ng/mL and 4140 ng/mL. For the same compound, the “MBX 4132 Concentrations in Mouse Plasma” value (SC (10 mg/kg), 1 hrs, individual animals, 10 mg/kg) was 3190 ng/mL and 3390 ng/mL, the “MBX 4132 Concentrations in Mouse Plasma” value (SC (10 mg/kg), 4 hrs, individual animals, 10 mg/kg) was 2890 ng/mL and 2390 ng/mL and the “MBX 4132 Concentrations in Mouse Plasma” value (SC (10 mg/kg), 8 hrs, individual animals, 10 mg/kg) was 2800 ng/mL and 2480 ng/mL. The “MBX 4132 Concentrations in Mouse Plasma” value (SC (10 mg/kg), 24 hrs, individual animals, 10 mg/kg) was 599 ng/mL and 627 ng/mL, the “MBX 4132 Concentrations in Mouse Plasma” value (SC (25 mg/kg), 0.083 hrs, individual animals, 25 mg/kg) was 1190 ng/mL and 2170 ng/mL and the “MBX 4132 Concentrations in Mouse Plasma” value (SC (25 mg/kg), 0.5 hrs, individual animals, 25 mg/kg) was 3170 ng/mL and 5250 ng/mL and 6610 ng/mL. For the same compound, the “MBX 4132 Concentrations in Mouse Plasma” value (SC (25 mg/kg), 1 hrs, individual animals, 25 mg/kg) was 5270 ng/mL and 5450 ng/mL, the “MBX 4132 Concentrations in Mouse Plasma” value (SC (25 mg/kg), 4 hrs, individual animals, 25 mg/kg) was 3050 ng/mL and 3600 ng/mL and the “MBX 4132 Concentrations in Mouse Plasma” value (SC (25 mg/kg), 8 hrs, individual animals, 25 mg/kg) was 3850 ng/mL and 4860 ng/mL. For the same compound, the “MBX 4132 Concentrations in Mouse Plasma” value (SC (25 mg/kg), 24 hrs, individual animals, 25 mg/kg) was 2190 ng/mL and 1680 ng/mL, the concentration at 24 h (female, CD-1, mouse, in vivo, iv, 10 mg/kg, IV (10 mg/kg), 24 hrs, mean of 3 animals, read-out: MBX 4132 Concentrations in Mouse Plasma, Mean) was 170 ng/mL and the concentration at 0.25 h (female, CD-1, mouse, in vivo, po, 10 mg/kg, PO (10 mg/kg susp.), 0.25 hrs, individual animals, read-out: MBX 4132 Concentrations in Mouse Plasma) was 14300 ng/mL. The concentration at 0.25 h (female, CD-1, mouse, in vivo, po, 10 mg/kg, PO (10 mg/kg susp.), 0.25 hrs, mean of 3 animals, read-out: MBX 4132 Concentrations in Mouse Plasma, Mean) was 12900 ng/mL, the concentration at 0.5 h (female, CD-1, mouse, in vivo, po, 10 mg/kg, PO (10 mg/kg susp.), 0.5 hrs, individual animals, read-out: MBX 4132 Concentrations in Mouse Plasma) was 13900 ng/mL and the concentration at 0.5 h (female, CD-1, mouse, in vivo, po, 10 mg/kg, PO (10 mg/kg susp.), 0.5 hrs, mean of 3 animals, read-out: MBX 4132 Concentrations in Mouse Plasma, Mean) was 14000 ng/mL. For the same compound, the concentration at 1 h (female, CD-1, mouse, in vivo, po, 10 mg/kg, PO (10 mg/kg susp.), 1 hrs, individual animals, read-out: MBX 4132 Concentrations in Mouse Plasma) was 12100 ng/mL, the concentration at 1 h (female, CD-1, mouse, in vivo, po, 10 mg/kg, PO (10 mg/kg susp.), 1 hrs, mean of 3 animals, read-out: MBX 4132 Concentrations in Mouse Plasma, Mean) was 14800 ng/mL and the concentration at 2 h (female, CD-1, mouse, in vivo, po, 10 mg/kg, PO (10 mg/kg susp.), 2 hrs, individual animals, read-out: MBX 4132 Concentrations in Mouse Plasma) was 15000 ng/mL. It also gave a concentration at 2 h (female, CD-1, mouse, in vivo, po, 10 mg/kg, PO (10 mg/kg susp.), 2 hrs, mean of 3 animals, read-out: MBX 4132 Concentrations in Mouse Plasma, Mean) of 14700 ng/mL, a concentration at 4 h (female, CD-1, mouse, in vivo, po, 10 mg/kg, PO (10 mg/kg susp.), 4 hrs, individual animals, read-out: MBX 4132 Concentrations in Mouse Plasma) of 13300 ng/mL and a concentration at 4 h (female, CD-1, mouse, in vivo, po, 10 mg/kg, PO (10 mg/kg susp.), 4 hrs, mean of 3 animals, read-out: MBX 4132 Concentrations in Mouse Plasma, Mean) of 13600 ng/mL. For the same compound, the concentration at 8 h (female, CD-1, mouse, in vivo, po, 10 mg/kg, PO (10 mg/kg susp.), 8 hrs, individual animals, read-out: MBX 4132 Concentrations in Mouse Plasma) was 9290 ng/mL.
